Experimental data from PubChem BioAssay (NCI).
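Five compound concentrations were applied to cells in 96-well plates for 48 hours; endpoints were derived by simple linear interpolation of the resulting dose-response curve. GI50 is the concentration that inhibits growth by half. TGI marks complete inhibition of growth.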

Legend:
Test in all cases: growth of human tumour cells (NCI), 48 h
OVCAR-8 ovarian = test system: OVCAR-8 ovarian
SNB-19 CNS = test system: SNB-19 CNS
SW-620 colon = test system: SW-620 colon
COLO 205 colon = test system: COLO 205 colon
M14 melanoma = test system: M14 melanoma
RXF 393 renal = test system: RXF 393 renal
SK-MEL-2 melanoma = test system: SK-MEL-2 melanoma
SNB-75 CNS = test system: SNB-75 CNS
HCT-15 colon = test system: HCT-15 colon
SF-539 CNS = test system: SF-539 CNS

SMILES | GI50 (OVCAR-8 ovarian) | TGI (OVCAR-8 ovarian) | GI50 (SNB-19 CNS) | TGI (SNB-19 CNS) | GI50 (SW-620 colon) | TGI (SW-620 colon) | GI50 (COLO 205 colon) | TGI (COLO 205 colon) | GI50 (M14 melanoma) | TGI (M14 melanoma) | GI50 (RXF 393 renal) | TGI (RXF 393 renal) | GI50 (SK-MEL-2 melanoma) | TGI (SK-MEL-2 melanoma) | GI50 (SNB-75 CNS) | TGI (SNB-75 CNS) | GI50 (HCT-15 colon) | TGI (HCT-15 colon) | GI50 (SF-539 CNS) | TGI (SF-539 CNS)
FC(F)c1ncc(-c2ccc(C(F)(F)F)cc2)c(NC2CCCCCC2)n1 | > 10 µM | > 10 µM | > 10 µM | > 10 µM | > 10 µM | > 10 µM | > 10 µM | > 10 µM | > 10 µM | > 10 µM | > 10 µM | > 10 µM | > 10 µM | > 10 µM | > 10 µM | > 10 µM | > 10 µM | > 10 µM | > 10 µM | > 10 µM
OCCCCC#Cc1ccccc1C#Cc1cccnc1 | 30.7 µM | > 100 µM | 49.3 µM | > 100 µM | 45.2 µM | > 100 µM | 28.4 µM | 94.4 µM | 23.4 µM | 75.4 µM | 5.95 µM | 28.6 µM | 87.9 µM | > 100 µM | 40.3 µM | > 100 µM | 21.9 µM | 74.1 µM | 43 µM | > 100 µM
COc1ccc(Nc2ncnc3ccc(-c4cncc(NS(C)(=O)=O)c4)cc23)cc1Cl | 3.62 µM | 16.5 µM | 2.81 µM | 24.4 µM | 3.23 µM | 12.4 µM | 1.8 µM | 4.47 µM | 2.81 µM | 13.6 µM | 2.08 µM | 5.63 µM | 1.02 µM | 2.67 µM | 0.352 µM | 6.37 µM | 3.6 µM | 14.1 µM | 1.84 µM | 7.72 µM
CCN1CCN(c2cc(C(=O)Nc3cccc(Nc4ccc5c(OC)cccc5n4)c3)cc(C(F)(F)F)c2)CC1 | 1.97 µM | 7.64 µM | 2.1 µM | 7.01 µM | 3.67 µM | 8.77 µM | 0.654 µM | 1.49 µM | 0.668 µM | 1.65 µM | 0.918 µM | 4.86 µM | 5.3 µM | 11 µM | 1.05 µM | 5.36 µM | 0.797 µM | 2.26 µM | 3.28 µM | 7.31 µM
CCCCCCC(=O)C/C(CCC(=O)N(Cc1ccccc1)Cc1ccccc1)=N\NC(N)=O |  | > 100 µM |  | > 100 µM |  | > 100 µM |  | > 100 µM |  | > 100 µM |  | > 100 µM |  | > 100 µM |  | > 100 µM |  | > 100 µM |  | > 100 µM
Cc1cc(=O)[nH]c(N/N=C/c2ccccc2O)n1 | 3.1 µM | > 100 µM | 24.5 µM | > 100 µM | 4.6 µM | > 100 µM | 3.81 µM | > 100 µM | 3.56 µM | 26.3 µM | 12.8 µM | 92.6 µM | > 100 µM | > 100 µM | 71.5 µM | > 100 µM | 4.63 µM | > 100 µM | 7.06 µM | > 100 µM
CC(C)[P+](c1ccccc1)(c1ccccc1)c1ccccc1 | 4.42 µM | > 100 µM | 5.54 µM | > 100 µM | 6.83 µM | > 100 µM | 3.87 µM | 16 µM | 11.2 µM | > 100 µM | 27.4 µM | > 100 µM | 3.77 µM | 21.9 µM | 4.81 µM | 66 µM | > 100 µM | > 100 µM | 15.6 µM | > 100 µM
COC(=O)/C(C#N)=C1\CCC(OC)N1C (stereo not given) |  | > 100 µM |  | > 100 µM |  | > 100 µM |  | > 100 µM |  | > 100 µM |  | > 100 µM |  | > 100 µM |  | > 100 µM |  | > 100 µM |  | > 100 µM
O=C1CC(C2(O)C(=O)Nc3ccc([N+](=O)[O-])cc32)c2ccccc21 (stereo not given) |  | > 100 µM |  | > 100 µM |  | 81.6 µM |  | 71.6 µM |  | 52.2 µM |  | 45.5 µM |  | 36.5 µM |  | > 100 µM |  | 37.8 µM |  | 64.1 µM
COC1=C(OC)C(=O)C(C/C=C(\C)CC/C=C(\C)CC/C=C(\C)CC/C=C(\C)CC/C=C(\C)CC/C=C(\C)CC/C=C(\C)CC/C=C(\C)CC/C=C(\C)CCC=C(C)C)=C(C)C1=O | > 100 µM | > 100 µM | > 100 µM | > 100 µM | > 100 µM | > 100 µM | > 100 µM | > 100 µM | > 100 µM | > 100 µM | > 100 µM | > 100 µM | > 100 µM | > 100 µM | > 100 µM | > 100 µM | > 100 µM | > 100 µM | > 100 µM | > 100 µM
COc1cc2c(cc1OC)C(C(CBr)CBr)N(C1CCCC1)CC2 (stereo not given) |  | > 100 µM |  | > 100 µM |  | > 100 µM |  | > 100 µM |  | > 100 µM |  | > 100 µM |  | > 100 µM |  | > 100 µM |  | > 100 µM |  | > 100 µM
CCc1ccc2oc(=O)ccc2c1 |  | > 100 µM |  | > 100 µM |  | > 100 µM |  | > 100 µM |  | > 100 µM |  | > 100 µM |  | > 100 µM |  | > 100 µM |  | > 100 µM |  | > 100 µM
